Results taken from PubChem BioAssay AID2060904 (Molecular Pharmacology Branch, DTP, NCI, 2025).

Test system: 349418-098-R-PDC complex spheroid viability
Experiment: Anticancer human tumor 349418-098-R-PDC patient-derived lung adenocarcinoma cell line growth inhibition [RAS]
Conditions: for IC50: curve of first compound; for viability, T/C: stronger effect = lower value
Method in brief: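 Tumour cells grown as complex spheroids with HUVEC endothelial cells and mesenchymal stem cells, treated with RAS pathway inhibitor combinations. Each agent spans half-log steps from near clinical Cmax, or 10 microM where Cmax is unknown.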

[1] = second compound 0.0316 µM, first compound 0.0316 µM
[2] = second compound 0.0316 µM, first compound 0.1 µM
[3] = second compound 0.1 µM, first compound 0.0316 µM
[4] = second compound 0.1 µM, first compound 0.1 µM
[5] = second compound 0.316 µM, first compound 0.0316 µM
[6] = second compound 0.316 µM, first compound 0.1 µM
[7] = second compound 1 µM, first compound 0.0316 µM
[8] = second compound 1 µM, first compound 0.1 µM
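Also: spheroids exposed to compound for seven days before viability readout.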

Molecule `CC(=O)OC12COC1CC(O)C1(C)C(=O)C(O)C3=C(C)C(OC(=O)C(O)C(NC(=O)OC(C)(C)C)c4ccccc4)CC(O)(C(OC(=O)c4ccccc4)C21)C3(C)C` (stereo unspecified) + C=CC(=O)N1CCN(c2nc(OCC3CCCN3C)nc3c(F)c(-c4nc(N)cc(C)c4C(F)(F)F)c(Cl)cc23)C(C)C1 has an IC50 (second compound 0.00316 µM) of under 31.6 nM, an IC50 (second compound 0.01 µM) of under 31.6 nM and an IC50 (second compound 0.0316 µM) of under 31.6 nM. The IC50 (second compound 0.1 µM) was under 31.6 nM, the IC50 (second compound 0.316 µM) was under 31.6 nM and the IC50 (second compound 1 µM) was under 31.6 nM. For the same molecule, the viability, T/C (second compound 0.00316 µM, first compound 0.0316 µM) was 12.6%, the viability, T/C (second compound 0.00316 µM, first compound 0.1 µM) was 17.8% and the viability, T/C (second compound 0.00316 µM, first compound 0.316 µM) was 16.3%. The viability, T/C (second compound 0.00316 µM, first compound 1 µM) was 20.1%, the viability, T/C (second compound 0.00316 µM, first compound 3.16 µM) was 23.8% and the viability, T/C (second compound 0.00316 µM, first compound 10 µM) was 23.6%. The viability, T/C (second compound 0.01 µM, first compound 0.0316 µM) was 12.8%, the viability, T/C (second compound 0.01 µM, first compound 0.1 µM) was 16.6% and the viability, T/C (second compound 0.01 µM, first compound 0.316 µM) was 14.5%. It also gave a viability, T/C (second compound 0.01 µM, first compound 1 µM) of 20.7%, a viability, T/C (second compound 0.01 µM, first compound 3.16 µM) of 19.3% and a viability, T/C (second compound 0.01 µM, first compound 10 µM) of 19.1%. For the same molecule, the viability, T/C [1] was 16.9%, the viability, T/C [2] was 15.2% and the viability, T/C (second compound 0.0316 µM, first compound 0.316 µM) was 15.4%. It also gave a viability, T/C (second compound 0.0316 µM, first compound 1 µM) of 22.6%, a viability, T/C (second compound 0.0316 µM, first compound 3.16 µM) of 22.9% and a viability, T/C (second compound 0.0316 µM, first compound 10 µM) of 26.5%. It also gave a viability, T/C [3] of 13%, a viability, T/C [4] of 15% and a viability, T/C (second compound 0.1 µM, first compound 0.316 µM) of 16.5%. For the same molecule, the viability, T/C (second compound 0.1 µM, first compound 1 µM) was 16.1%, the viability, T/C (second compound 0.1 µM, first compound 3.16 µM) was 24.3% and the viability, T/C (second compound 0.1 µM, first compound 10 µM) was 21.4%. The viability, T/C [5] was 16.8%, the viability, T/C [6] was 18.1% and the viability, T/C (second compound 0.316 µM, first compound 0.316 µM) was 18.2%. For the same molecule, the viability, T/C (second compound 0.316 µM, first compound 1 µM) was 18.2%, the viability, T/C (second compound 0.316 µM, first compound 3.16 µM) was 21.6% and the viability, T/C (second compound 0.316 µM, first compound 10 µM) was 25.6%. For the same molecule, the viability, T/C [7] was 13.8%, the viability, T/C [8] was 12% and the viability, T/C (second compound 1 µM, first compound 0.316 µM) was 18.8%. The viability, T/C (second compound 1 µM, first compound 1 µM) was 20.2%, the viability, T/C (second compound 1 µM, first compound 3.16 µM) was 20.2% and the viability, T/C (second compound 1 µM, first compound 10 µM) was 25.8%.
For `CC(C)n1nc(-c2ccc3oc(N)nc3c2)c2c(N)ncnc21` + C#Cc1c(F)ccc2cc(O)cc(-c3ncc4c(N5CC6CCC(C5)N6)nc(OCC56CCCN5CC(F)C6)nc4c3F)c12, the IC50 (second compound 0.0316 µM) was 5.82 nM, the IC50 (second compound 0.1 µM) was 3.71 nM and the IC50 (second compound 0.316 µM) was 5.3 nM. It also gave an IC50 (second compound 1 µM) of 6.59 nM, an IC50 (second compound 3.16 µM) of 3.7 nM and an IC50 (second compound 10 µM) of 1.58 nM. For the same molecule, the viability, T/C (second compound 0.0316 µM, first compound 0.000316 µM) was 98.7%, the viability, T/C (second compound 0.0316 µM, first compound 0.001 µM) was 132% and the viability, T/C (second compound 0.0316 µM, first compound 0.00316 µM) was 90.5%. It also gave a viability, T/C (second compound 0.0316 µM, first compound 0.01 µM) of 15.3%, a viability, T/C [1] of 10.9% and a viability, T/C [2] of 10.4%. The viability, T/C (second compound 0.1 µM, first compound 0.000316 µM) was 67.8%, the viability, T/C (second compound 0.1 µM, first compound 0.001 µM) was 123% and the viability, T/C (second compound 0.1 µM, first compound 0.00316 µM) was 56%. It also gave a viability, T/C (second compound 0.1 µM, first compound 0.01 µM) of 19.4%, a viability, T/C [3] of 10.4% and a viability, T/C [4] of 9%. It also gave a viability, T/C (second compound 0.316 µM, first compound 0.000316 µM) of 87.8%, a viability, T/C (second compound 0.316 µM, first compound 0.001 µM) of 114% and a viability, T/C (second compound 0.316 µM, first compound 0.00316 µM) of 73.9%. The viability, T/C (second compound 0.316 µM, first compound 0.01 µM) was 20.5%, the viability, T/C [5] was 8.95% and the viability, T/C [6] was 8.66%. For the same molecule, the viability, T/C (second compound 1 µM, first compound 0.000316 µM) was 74.8%, the viability, T/C (second compound 1 µM, first compound 0.001 µM) was 111% and the viability, T/C (second compound 1 µM, first compound 0.00316 µM) was 85.9%. It also gave a viability, T/C (second compound 1 µM, first compound 0.01 µM) of 29.2%, a viability, T/C [7] of 8.08% and a viability, T/C [8] of 9.16%. The viability, T/C (second compound 3.16 µM, first compound 0.000316 µM) was 109%, the viability, T/C (second compound 3.16 µM, first compound 0.001 µM) was 104% and the viability, T/C (second compound 3.16 µM, first compound 0.00316 µM) was 48.4%. The viability, T/C (second compound 3.16 µM, first compound 0.01 µM) was 30.2%, the viability, T/C (second compound 3.16 µM, first compound 0.0316 µM) was 9.48% and the viability, T/C (second compound 3.16 µM, first compound 0.1 µM) was 8.95%. It also gave a viability, T/C (second compound 10 µM, first compound 0.000316 µM) of 56.1%, a viability, T/C (second compound 10 µM, first compound 0.001 µM) of 72% and a viability, T/C (second compound 10 µM, first compound 0.00316 µM) of 28.5%. It also gave a viability, T/C (second compound 10 µM, first compound 0.01 µM) of 10.7%, a viability, T/C (second compound 10 µM, first compound 0.0316 µM) of 6.47% and a viability, T/C (second compound 10 µM, first compound 0.1 µM) of 4.1%.
`CC(C)n1nc(-c2ccc3oc(N)nc3c2)c2c(N)ncnc21` + CCn1c(-c2cc(N3CCN(C)CC3)cnc2C(C)OC)c2c3cc(ccc31)-c1csc(n1)CC(NC(=O)C1CC1C)C(=O)N1CCCC(N1)C(=O)OCC(C)(C)C2 was tested, and the IC50 (second compound 0.000949 µM) was 2.3 nM, the IC50 (second compound 0.003 µM) was 3.06 nM and the IC50 (second compound 0.00949 µM) was 2.79 nM. The IC50 (second compound 0.03 µM) was 3.57 nM, the IC50 (second compound 0.0949 µM) was 1.99 nM and the IC50 (second compound 0.3 µM) was 3.49 nM. The viability, T/C (second compound 0.000949 µM, first compound 0.000316 µM) was 97.9%, the viability, T/C (second compound 0.000949 µM, first compound 0.001 µM) was 75.8% and the viability, T/C (second compound 0.000949 µM, first compound 0.00316 µM) was 37.8%. For the same molecule, the viability, T/C (second compound 0.000949 µM, first compound 0.01 µM) was 22.4%, the viability, T/C (second compound 0.000949 µM, first compound 0.0316 µM) was 8.76% and the viability, T/C (second compound 0.000949 µM, first compound 0.1 µM) was 7.18%. For the same molecule, the viability, T/C (second compound 0.003 µM, first compound 0.000316 µM) was 87%, the viability, T/C (second compound 0.003 µM, first compound 0.001 µM) was 66.9% and the viability, T/C (second compound 0.003 µM, first compound 0.00316 µM) was 54.9%. It also gave a viability, T/C (second compound 0.003 µM, first compound 0.01 µM) of 18.6%, a viability, T/C (second compound 0.003 µM, first compound 0.0316 µM) of 7.75% and a viability, T/C (second compound 0.003 µM, first compound 0.1 µM) of 6.04%. The viability, T/C (second compound 0.00949 µM, first compound 0.000316 µM) was 106%, the viability, T/C (second compound 0.00949 µM, first compound 0.001 µM) was 84.4% and the viability, T/C (second compound 0.00949 µM, first compound 0.00316 µM) was 46.3%. It also gave a viability, T/C (second compound 0.00949 µM, first compound 0.01 µM) of 16.6%, a viability, T/C (second compound 0.00949 µM, first compound 0.0316 µM) of 7.24% and a viability, T/C (second compound 0.00949 µM, first compound 0.1 µM) of 5.27%. For the same molecule, the viability, T/C (second compound 0.03 µM, first compound 0.000316 µM) was 100%, the viability, T/C (second compound 0.03 µM, first compound 0.001 µM) was 98.3% and the viability, T/C (second compound 0.03 µM, first compound 0.00316 µM) was 54.4%. For the same molecule, the viability, T/C (second compound 0.03 µM, first compound 0.01 µM) was 11.8%, the viability, T/C (second compound 0.03 µM, first compound 0.0316 µM) was 8.66% and the viability, T/C (second compound 0.03 µM, first compound 0.1 µM) was 6.68%. It also gave a viability, T/C (second compound 0.0949 µM, first compound 0.000316 µM) of 111%, a viability, T/C (second compound 0.0949 µM, first compound 0.001 µM) of 67.4% and a viability, T/C (second compound 0.0949 µM, first compound 0.00316 µM) of 39.3%. The viability, T/C (second compound 0.0949 µM, first compound 0.01 µM) was 18.7%, the viability, T/C (second compound 0.0949 µM, first compound 0.0316 µM) was 7.91% and the viability, T/C (second compound 0.0949 µM, first compound 0.1 µM) was 5.64%. For the same molecule, the viability, T/C (second compound 0.3 µM, first compound 0.000316 µM) was 94.7%, the viability, T/C (second compound 0.3 µM, first compound 0.001 µM) was 87.2% and the viability, T/C (second compound 0.3 µM, first compound 0.00316 µM) was 53.6%. The viability, T/C (second compound 0.3 µM, first compound 0.01 µM) was 14.6%, the viability, T/C (second compound 0.3 µM, first compound 0.0316 µM) was 8.69% and the viability, T/C (second compound 0.3 µM, first compound 0.1 µM) was 6.51%.
